7 compounds from patent publication EP1118615A1, “NOVEL SALTS OF PYRIDOPYRAZINE COMPOUND AND CRYSTALS THEREOF” (FUJISAWA PHARMACEUTICAL CO., LTD., priority 1998, dated 2000) can be followed below.

The nature of series [1]: Changes in crystallinity upon compounding with ethanol. The class given is physicochemical. The source says: (2) Changes in crystallinity upon compounding
For compound (I) and hydrochloride (B), changes in crystallinity upon compounding with ethanol were studied.

The nature of the next series: Stability in solid state. The class given is physicochemical. Also noted: Water content: unit not given here. The source says:
The crystallinity of hydrochloride was decreased when it was mixed with ethanol.
(§1) In the study on polymorphism of compound (I), six kinds of polymorphs (A01, A09, A16, A20, A30 and A43 crystals) were found. For each of those polymorphs, hygroscopicity, stability in solid state, solubility and changes in crystallinity on compounding with various solvents were studied. However, the A30 crystal was not studied since it contains ethanol.
(2) Stability in solid state

A further series can be described thus: Hygroscopicity. It counts as physicochemical.
Description: as §1

A further series can be described thus: physchem. Conditions: thermodynamic from solid.
The conditions of series [2]: methanesulfonate.
Where [3] appears, read: 70°C, 75% RH, 9 days, methanesulfonate.
The mark [4] stands for this setting: distilled water for injection, water.
Where [5] appears, read: physiological saline solution, saline or isotonic.
Where [6] appears, read: Table 1, listed as Compound (I) (A01 crystal).
[7] abbreviates: Table 4, room temperature, 30-min shaking.

Each structure is given as a SMILES string. Where a name gives a salt, the structure may show the parent alone. Read-outs that look alike come from different tables or passages of the source.

As to `CS(=O)(=O)O.O=C(Nc1cccc(-n2c(=O)c(Cc3cccnc3)nc3cccnc32)c1)c1cc(Cl)cc(Cl)c1` [A01 crystal, 4-(3-(3,5-dichlorobenzoylamino)phenyl)-2-(3-pyridyl)methyl-3-oxo-3,4-dihydropyr ido[2,3-b]pyrazine methanesulfonate], in series [1] (listed as Compound (I) (A01 crystal), methanesulfonate), the “Influence of compounding with ethanol on crystallinity” value (“Influence of compounding with ethanol” below) is reported as “No change (changed into in A16 crystal)”. Also, the Crystal form entry in “Stability in solid state” (70°C, 75% RH, 9 days) is “Unchanged”; in “Stability in solid state” (70°C, 9 days), “Unchanged”. The entries for the “% Residue” value in the series “Stability in solid state” (setting [3]) and in the series “Stability in solid state” (Initial) were 99.9% and 100.0%, respectively. The Appearance result in the series “Stability in solid state” (setting [3]) is reported as “Yellowish white crystalline powder powder”; in “Stability in solid state” (70°C, 9 days, methanesulfonate) it was “Yellowish white crystalline powder”; in the series “Stability in solid state” (Initial, methanesulfonate), “Yellowish white crystalline powder”. The Water content was 4.76 in the series “Stability in solid state” (setting [3]); 4.23 in “Stability in solid state” (70°C, 9 days, methanesulfonate); 4.42 in the series “Stability in solid state” (Initial, methanesulfonate). Moreover, in the series “Hygroscopicity” (listed as A01, methanesulfonate), the Hygroscopicity entry is reported as “less hygroscopic”. Moreover, the values for the solubility in the series “physchem” (setting [4]) and in “physchem” (setting [5]) were 637 µg/mL and 43.9 µg/mL, respectively. Besides, the solubility (as a rule, the concentration that dissolves in the medium under given conditions) at 30 min in “physchem” (setting [5]) is 43.9 µg/mL. In addition, the “Solubility, Distilled water for injection” value in series [2] (setting [6]) is listed as “improved”. Besides, in series [2] (setting [6]), the “Solubility, Physiological saline solution” value is given as “improved”. Moreover, the “Solubility, Distilled injection for injection” value in series [2] (setting [7]) came out at 637 µg/mL.
`CS(=O)(=O)O.O=C(Nc1cccc(-n2c(=O)c(Cc3cccnc3)nc3cccnc32)c1)c1cc(Cl)cc(Cl)c1` [A20 crystal, 4-(3-(3,5-dichlorobenzoylamino)phenyl)-2-(3-pyridyl)methyl-3-oxo-3,4-dihydropyr ido[2,3-b]pyrazine methanesulfonate]: the Crystal form result in the series “Stability in solid state” (70°C, 75% RH, 9 days) was “Unchanged”; in “Stability in solid state” (70°C, 9 days), “Unchanged”. In addition, the “% Residue” value stood at 101.0% in the series “Stability in solid state” (setting [3]); 99.6% in the series “Stability in solid state” (70°C, 9 days, methanesulfonate); 100.0% in the series “Stability in solid state” (Initial). The Appearance result was “Pale yellowish white crystalline powder” in “Stability in solid state” (setting [3]); “Pale yellowish white crystalline powder” in the series “Stability in solid state” (70°C, 9 days, methanesulfonate); “Pale yellowish white white crystalline powder” in the series “Stability in solid state” (Initial, methanesulfonate). The Water content is listed as 1.22 in “Stability in solid state” (setting [3]); 0.30 in the series “Stability in solid state” (70°C, 9 days, methanesulfonate); 0.41 in the series “Stability in solid state” (Initial, methanesulfonate). Further, the “change in crystal form” value in the series “Stability in solid state” (heat and humidity, summary of Table 3) is recorded as “no change”. Moreover, the “chemical stability against heat and humidity” value in “Stability in solid state” (summary of Table 3) is listed as “chemically stable”. For the same compound, in the series “Hygroscopicity” (listed as A20, methanesulfonate), the Hygroscopicity result is given as “less hygroscopic”. Besides, the “Solubility, Distilled injection for injection” value in series [2] (setting [7]) worked out at 8.76 µg/mL. Moreover, the “Solubility, Physiological saline solution” value in series [2] (setting [7]) was 0.0645 mg/ml.
With `CS(=O)(=O)O.O=C(Nc1cccc(-n2c(=O)c(Cc3cccnc3)nc3cccnc32)c1)c1cc(Cl)cc(Cl)c1` [Example A09, 4-(3-(3,5-dichlorobenzoylamino)phenyl)-2-(3-pyridyl)methyl-3-oxo-3,4-dihydropyrido[2,3-b]pyrazine methanesulfonate], the Hygroscopicity result in the series “Hygroscopicity” (methanesulfonate) was “highly hygroscopic”.
Regarding `CS(=O)(=O)O.O=C(Nc1cccc(-n2c(=O)c(Cc3cccnc3)nc3cccnc32)c1)c1cc(Cl)cc(Cl)c1` [compound (I), 4-[3-(3,5-dichlorobenzoylamino)phenyl]-2-(3-pyridylmethyl)-3-oxo-3,4-dihydropyr ido[2,3-b]pyrazine methanesulfonate], the “Influence of compounding with ethanol” value in series [1] (methanesulfonate) is given as “no change in crystallinity”.
Consider `O=C(Nc1cccc(-n2c(=O)c(Cc3cccnc3)nc3cccnc32)c1)c1cc(Cl)cc(Cl)c1` [free base (A), 4-[3-(3,5-dichlorobenzoylamino)phenyl]-2-(3-pyridylmethyl)-3-oxo-3,4-dihydropyr ido[2,3-b]pyrazine, reference compound], for which the solubility in the series “physchem” (setting [4]) and in “physchem” (setting [5]) was ≤ 1 µg/mL throughout.
Consider `O=C(Nc1cccc(-n2c(=O)c(Cc3cccnc3)nc3cccnc32)c1)c1cc(Cl)cc(Cl)c1` [hydrochloride (B), reference compound], for which the “Influence of compounding with ethanol” value in series [1] (listed as Hydrochloride (B)) was “Crystallinity decreased”; in series [1] (listed as hydrochloride), “decreased”. In “Stability in solid state” (ethanol-compounded solid, 70°C for 9 days), this compound registered a residual amount of 91%.
Regarding `O=C(Nc1cccc(-n2c(=O)c(Cc3cccnc3)nc3cccnc32)c1)c1cc(Cl)cc(Cl)c1.O=S(=O)(O)O` [sulfate, 4-(3-(3,5-dichlorobenzoylamino)phenyl)-2-(3-pyridyl)methyl-3-oxo-3,4-dihydropyrido[2,3-b]pyrazine sulfate, reference compound], the solubility in the series “physchem” (setting [4]) was determined as 29.5 µg/mL; in the series “physchem” (setting [5]) it was 38.9 µg/mL.
